Data published in patent US20230398130A1, “METHODS AND COMPOSITIONS FOR DIFFERENTIATING STEM CELLS” (Massachusetts Institute of Technology, priority 2020, published 2023).

Legend:
ISC-enriched organoids [1] = assay: Primary screen, 384-well 2.5-D organoid differentiation (ENR+CD, 6 days): carbachol-induced lysozyme secretion (LYZ.S); type: cell-based, murine; details: primary screen; for Dose.FC.LYZ.S: FC vs plate median; for Z.LYZ.S: standard z score; for SSMD.LYZ.S: strictly standardized mean difference
Description: (§1) High-throughput screening.

ISC-enriched organoids [2] = assay: Primary screen, 384-well 2.5-D organoid differentiation (ENR+CD, 6 days): basal lysozyme secretion (LYZ.NS); type: cell-based, murine; details: primary screen; for Dose.FC.LYZ.NS: FC vs plate median; for Z.LYZ.NS: standard z score; for SSMD.LYZ.NS: strictly standardized mean difference
Description: as §1

ISC-enriched organoids [3] = assay: Primary screen, 384-well 2.5-D organoid differentiation (ENR+CD, 6 days, Target Selective Inhibitor Library, vs whole-plate median): ATP (CellTiter-Glo 3D, CTG); details: primary screen; for Dose.FC.CTG: FC vs plate median; for Z.CTG: standard z score; for SSMD.CTG: strictly standardized mean difference
[4] = 1st of the 4 dose lines of the treatment (dose not given)
[5] = 2nd of the 4 dose lines of the treatment (dose not given)
[6] = 3rd of the 4 dose lines of the treatment (dose not given)
[7] = 4th of the 4 dose lines of the treatment (dose not given)

| SMILES | Z.LYZ.S (ISC-enriched organoids [1]; [4]) | Z.LYZ.S (ISC-enriched organoids [1]; [5]) | Z.LYZ.S (ISC-enriched organoids [1]; [6]) | Z.LYZ.S (ISC-enriched organoids [1]; [7]) | SSMD.LYZ.S (ISC-enriched organoids [1]; [4]) | SSMD.LYZ.S (ISC-enriched organoids [1]; [5]) | SSMD.LYZ.S (ISC-enriched organoids [1]; [6]) | SSMD.LYZ.S (ISC-enriched organoids [1]; [7]) | SSMD.LYZ.NS (ISC-enriched organoids [2]; [4]) | SSMD.LYZ.NS (ISC-enriched organoids [2]; [5]) | SSMD.LYZ.NS (ISC-enriched organoids [2]; [6]) | SSMD.LYZ.NS (ISC-enriched organoids [2]; [7]) | Z.CTG (ISC-enriched organoids [3]; Dose 0.08 uM) | Z.CTG (ISC-enriched organoids [3]; Dose 0.40 uM) | Z.CTG (ISC-enriched organoids [3]; Dose 2.00 uM) | Z.CTG (ISC-enriched organoids [3]; Dose 10.00 uM) | SSMD.CTG (ISC-enriched organoids [3]; [4]) | SSMD.CTG (ISC-enriched organoids [3]; [5]) | SSMD.CTG (ISC-enriched organoids [3]; [6]) | SSMD.CTG (ISC-enriched organoids [3]; [7]) | other results |
| --- | --- | --- | --- | --- | --- | --- | --- | --- | --- | --- | --- | --- | --- | --- | --- | --- | --- | --- | --- | --- | --- |
| O=C(O)CNC(=O)c1c(O)c2ccccc2n(Cc2ccccc2)c1=O [IOX2] | 0.305 | 0.456 | 0.005 | −0.314 | 0.359 | 0.428 | 0.006 | −0.298 | 0.296 | 0.182 | 0.408 | −0.420 | 0.356 | 0.185 | 0.232 | 0.002 | 0.501 | 0.264 | 0.287 | 0.003 | Dose.FC.LYZ.S (ISC-enriched organoids [1]; Dose 0.08 uM): 0.047 log 2 fold change; Dose.FC.LYZ.S (ISC-enriched organoids [1]; Dose 0.40 uM): 0.071 log 2 fold change; Dose.FC.LYZ.S (ISC-enriched organoids [1]; Dose 2.00 uM): 0.001 log 2 fold change; Dose.FC.LYZ.S (ISC-enriched organoids [1]; Dose 10.00 uM): −0.049 log 2 fold change; Dose.FC.LYZ.NS (ISC-enriched organoids [2]; Dose 0.08 uM): 0.029 log 2 fold change; Z.LYZ.NS (ISC-enriched organoids [2]; Dose 0.08 uM): 0.254; Dose.FC.LYZ.NS (ISC-enriched organoids [2]; Dose 0.40 uM): 0.028 log 2 fold change; Z.LYZ.NS (ISC-enriched organoids [2]; Dose 0.40 uM): 0.246; Dose.FC.LYZ.NS (ISC-enriched organoids [2]; Dose 2.00 uM): 0.043 log 2 fold change; Z.LYZ.NS (ISC-enriched organoids [2]; Dose 2.00 uM): 0.376; Dose.FC.LYZ.NS (ISC-enriched organoids [2]; Dose 10.00 uM): −0.045 log 2 fold change; Z.LYZ.NS (ISC-enriched organoids [2]; Dose 10.00 uM): −0.388; Dose.FC.CTG (ISC-enriched organoids [3]; Dose 0.08 uM): 0.149 log 2 fold change; Dose.FC.CTG (ISC-enriched organoids [3]; Dose 0.40 uM): 0.078 log 2 fold change; Dose.FC.CTG (ISC-enriched organoids [3]; Dose 2.00 uM): 0.097 log 2 fold change; Dose.FC.CTG (ISC-enriched organoids [3]; Dose 10.00 uM): 0.001 log 2 fold change |
| Oc1ccc2ccccc2c1SSc1c(O)ccc2ccccc12 [IPA-3] | 0.413 | −0.202 | 0.431 | −0.347 | 0.356 | −0.184 | 0.324 | −0.305 | 0.027 | 0.026 | −0.008 | −0.175 | 0.524 | −0.793 | −0.202 | −0.128 | 0.818 | −0.408 | −0.316 | −0.172 | Dose.FC.LYZ.S (ISC-enriched organoids [1]; Dose 0.08 uM): 0.064 log 2 fold change; Dose.FC.LYZ.S (ISC-enriched organoids [1]; Dose 0.40 uM): −0.031 log 2 fold change; Dose.FC.LYZ.S (ISC-enriched organoids [1]; Dose 2.00 uM): 0.067 log 2 fold change; Dose.FC.LYZ.S (ISC-enriched organoids [1]; Dose 10.00 uM): −0.054 log 2 fold change; Dose.FC.LYZ.NS (ISC-enriched organoids [2]; Dose 0.08 uM): 0.004 log 2 fold change; Z.LYZ.NS (ISC-enriched organoids [2]; Dose 0.08 uM): 0.031; Dose.FC.LYZ.NS (ISC-enriched organoids [2]; Dose 0.40 uM): 0.003 log 2 fold change; Z.LYZ.NS (ISC-enriched organoids [2]; Dose 0.40 uM): 0.028; Dose.FC.LYZ.NS (ISC-enriched organoids [2]; Dose 2.00 uM): −0.001 log 2 fold change; Z.LYZ.NS (ISC-enriched organoids [2]; Dose 2.00 uM): −0.010; Dose.FC.LYZ.NS (ISC-enriched organoids [2]; Dose 10.00 uM): −0.021 log 2 fold change; Z.LYZ.NS (ISC-enriched organoids [2]; Dose 10.00 uM): −0.186; Dose.FC.CTG (ISC-enriched organoids [3]; Dose 0.08 uM): 0.219 log 2 fold change; Dose.FC.CTG (ISC-enriched organoids [3]; Dose 0.40 uM): −0.332 log 2 fold change; Dose.FC.CTG (ISC-enriched organoids [3]; Dose 2.00 uM): −0.084 log 2 fold change; Dose.FC.CTG (ISC-enriched organoids [3]; Dose 10.00 uM): −0.054 log 2 fold change |
| C#Cc1cccc(Nc2ncnc3cc4c(cc23)OCCOCCOCCO4)c1 [Icotinib] | 0.609 | −0.583 | −1.572 | −2.708 | 0.689 | −0.544 | −1.726 | −1.917 | 0.227 | −0.710 | −1.321 | −2.654 | −0.047 | −0.146 | −0.970 | −2.552 | −0.065 | −0.162 | −0.865 | −3.189 | – |
